Source: publication PMC8222254, “Self-assembly of an anion receptor with metal-dependent kinase inhibition and potent in vitro anti-cancer properties” (Nature Communications, 2021)
Several values for one entry are separate records, joined by “and”; a condition that tells them apart may be missing. Identical values can stand only once.

Experiments:
Test in all cases: Kinase inhibition screen, cell-free 33P ATP assay at 10 μM
Assay type in all cases: biochemical
[1] = target: 140 purified human kinases (Homo sapiens, UniProt Q02763)
140 purified human kinases (Homo sapiens, UniProt Q02763), sequence (Q02763 23-1124): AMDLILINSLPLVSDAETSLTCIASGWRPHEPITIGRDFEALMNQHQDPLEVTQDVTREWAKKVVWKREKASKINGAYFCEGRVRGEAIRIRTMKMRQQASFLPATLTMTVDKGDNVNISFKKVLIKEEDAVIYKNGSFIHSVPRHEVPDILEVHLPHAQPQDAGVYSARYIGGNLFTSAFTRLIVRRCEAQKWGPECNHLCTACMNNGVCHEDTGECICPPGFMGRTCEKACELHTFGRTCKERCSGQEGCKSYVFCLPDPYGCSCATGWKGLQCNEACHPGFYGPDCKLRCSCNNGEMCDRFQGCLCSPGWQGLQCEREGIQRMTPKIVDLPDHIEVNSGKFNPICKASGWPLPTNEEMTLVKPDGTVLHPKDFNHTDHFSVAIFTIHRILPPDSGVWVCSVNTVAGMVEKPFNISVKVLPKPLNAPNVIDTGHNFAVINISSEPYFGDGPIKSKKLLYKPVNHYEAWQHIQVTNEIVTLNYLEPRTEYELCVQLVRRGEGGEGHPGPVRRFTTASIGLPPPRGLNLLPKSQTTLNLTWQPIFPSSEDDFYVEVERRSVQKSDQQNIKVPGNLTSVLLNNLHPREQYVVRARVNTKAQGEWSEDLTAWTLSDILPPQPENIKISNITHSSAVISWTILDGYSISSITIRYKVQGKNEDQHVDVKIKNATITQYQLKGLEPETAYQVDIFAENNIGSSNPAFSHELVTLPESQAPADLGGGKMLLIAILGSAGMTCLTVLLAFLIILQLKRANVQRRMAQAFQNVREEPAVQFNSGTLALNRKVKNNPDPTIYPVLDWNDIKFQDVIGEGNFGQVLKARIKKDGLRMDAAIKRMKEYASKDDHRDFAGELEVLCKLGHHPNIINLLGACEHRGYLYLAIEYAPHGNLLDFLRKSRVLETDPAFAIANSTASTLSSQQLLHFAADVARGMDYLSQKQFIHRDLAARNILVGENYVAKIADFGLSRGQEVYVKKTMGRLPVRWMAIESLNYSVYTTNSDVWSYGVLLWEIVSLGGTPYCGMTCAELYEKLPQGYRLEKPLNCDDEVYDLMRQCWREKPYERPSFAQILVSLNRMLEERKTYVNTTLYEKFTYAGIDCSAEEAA
Outline: (§1)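 Radiometric ^33P ATP cell-free format with purified enzymes; both complexes run at 10 μM in duplicate, results plotted on a kinome map via HGNC symbols.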

[2] = target: T1, 140 purified human kinases (Homo sapiens, UniProt O43781)
T1 sequence (O43781 1-588): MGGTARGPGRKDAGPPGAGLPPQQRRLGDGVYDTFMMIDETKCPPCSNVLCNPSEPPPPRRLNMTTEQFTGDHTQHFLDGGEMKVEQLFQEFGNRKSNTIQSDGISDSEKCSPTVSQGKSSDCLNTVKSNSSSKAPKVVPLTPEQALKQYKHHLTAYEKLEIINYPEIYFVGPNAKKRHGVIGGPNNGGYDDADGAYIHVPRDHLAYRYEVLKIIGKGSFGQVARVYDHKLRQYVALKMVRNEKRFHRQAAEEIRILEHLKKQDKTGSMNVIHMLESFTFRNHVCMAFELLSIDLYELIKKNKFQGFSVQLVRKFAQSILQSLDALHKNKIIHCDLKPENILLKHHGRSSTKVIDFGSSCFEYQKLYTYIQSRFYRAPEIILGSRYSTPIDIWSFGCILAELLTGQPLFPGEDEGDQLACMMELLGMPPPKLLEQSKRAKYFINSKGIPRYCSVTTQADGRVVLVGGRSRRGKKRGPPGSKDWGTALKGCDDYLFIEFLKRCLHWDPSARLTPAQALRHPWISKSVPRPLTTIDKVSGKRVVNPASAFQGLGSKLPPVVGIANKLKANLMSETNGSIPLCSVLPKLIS
Outline: as §1

[3] = target: 140 purified human kinases (Homo sapiens, UniProt P78368)
140 purified human kinases (Homo sapiens, UniProt P78368), sequence (P78368 whole entry): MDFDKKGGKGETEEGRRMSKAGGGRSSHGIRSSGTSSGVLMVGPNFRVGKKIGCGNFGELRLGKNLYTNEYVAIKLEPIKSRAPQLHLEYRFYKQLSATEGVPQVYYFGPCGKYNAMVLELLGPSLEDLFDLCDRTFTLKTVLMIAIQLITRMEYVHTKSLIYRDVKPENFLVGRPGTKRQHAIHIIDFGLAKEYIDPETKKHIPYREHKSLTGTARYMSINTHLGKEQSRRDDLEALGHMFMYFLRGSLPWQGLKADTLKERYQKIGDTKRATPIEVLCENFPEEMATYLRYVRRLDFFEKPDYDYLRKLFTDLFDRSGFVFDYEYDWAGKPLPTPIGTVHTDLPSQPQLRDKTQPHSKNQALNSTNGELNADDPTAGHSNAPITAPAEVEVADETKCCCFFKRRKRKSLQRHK
Outline: as §1

[4] = target: 140 purified human kinases (Homo sapiens, UniProt P27448)
140 purified human kinases (Homo sapiens, UniProt P27448), sequence (P27448 whole entry): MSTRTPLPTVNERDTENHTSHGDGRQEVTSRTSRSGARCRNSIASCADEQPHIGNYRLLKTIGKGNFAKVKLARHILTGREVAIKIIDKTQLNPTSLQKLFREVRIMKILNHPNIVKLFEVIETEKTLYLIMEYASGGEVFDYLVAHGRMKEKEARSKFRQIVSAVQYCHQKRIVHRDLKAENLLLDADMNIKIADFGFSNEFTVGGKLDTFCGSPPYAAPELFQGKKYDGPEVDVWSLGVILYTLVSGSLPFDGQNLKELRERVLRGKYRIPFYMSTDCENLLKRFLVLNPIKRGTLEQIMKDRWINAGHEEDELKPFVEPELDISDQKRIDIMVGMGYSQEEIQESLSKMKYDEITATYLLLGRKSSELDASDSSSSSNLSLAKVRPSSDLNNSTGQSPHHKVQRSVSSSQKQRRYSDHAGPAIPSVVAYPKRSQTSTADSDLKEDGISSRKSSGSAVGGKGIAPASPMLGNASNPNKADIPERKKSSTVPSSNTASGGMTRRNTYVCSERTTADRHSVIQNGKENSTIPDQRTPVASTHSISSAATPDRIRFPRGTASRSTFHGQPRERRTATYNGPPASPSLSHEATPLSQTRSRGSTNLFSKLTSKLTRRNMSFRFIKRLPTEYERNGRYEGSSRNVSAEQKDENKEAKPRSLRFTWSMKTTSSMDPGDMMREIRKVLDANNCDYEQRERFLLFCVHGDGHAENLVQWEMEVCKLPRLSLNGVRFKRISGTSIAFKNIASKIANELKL
Outline: as §1

[5] = target: T2, 140 purified human kinases (Homo sapiens, UniProt P52333)
T2 sequence (P52333 1-1124): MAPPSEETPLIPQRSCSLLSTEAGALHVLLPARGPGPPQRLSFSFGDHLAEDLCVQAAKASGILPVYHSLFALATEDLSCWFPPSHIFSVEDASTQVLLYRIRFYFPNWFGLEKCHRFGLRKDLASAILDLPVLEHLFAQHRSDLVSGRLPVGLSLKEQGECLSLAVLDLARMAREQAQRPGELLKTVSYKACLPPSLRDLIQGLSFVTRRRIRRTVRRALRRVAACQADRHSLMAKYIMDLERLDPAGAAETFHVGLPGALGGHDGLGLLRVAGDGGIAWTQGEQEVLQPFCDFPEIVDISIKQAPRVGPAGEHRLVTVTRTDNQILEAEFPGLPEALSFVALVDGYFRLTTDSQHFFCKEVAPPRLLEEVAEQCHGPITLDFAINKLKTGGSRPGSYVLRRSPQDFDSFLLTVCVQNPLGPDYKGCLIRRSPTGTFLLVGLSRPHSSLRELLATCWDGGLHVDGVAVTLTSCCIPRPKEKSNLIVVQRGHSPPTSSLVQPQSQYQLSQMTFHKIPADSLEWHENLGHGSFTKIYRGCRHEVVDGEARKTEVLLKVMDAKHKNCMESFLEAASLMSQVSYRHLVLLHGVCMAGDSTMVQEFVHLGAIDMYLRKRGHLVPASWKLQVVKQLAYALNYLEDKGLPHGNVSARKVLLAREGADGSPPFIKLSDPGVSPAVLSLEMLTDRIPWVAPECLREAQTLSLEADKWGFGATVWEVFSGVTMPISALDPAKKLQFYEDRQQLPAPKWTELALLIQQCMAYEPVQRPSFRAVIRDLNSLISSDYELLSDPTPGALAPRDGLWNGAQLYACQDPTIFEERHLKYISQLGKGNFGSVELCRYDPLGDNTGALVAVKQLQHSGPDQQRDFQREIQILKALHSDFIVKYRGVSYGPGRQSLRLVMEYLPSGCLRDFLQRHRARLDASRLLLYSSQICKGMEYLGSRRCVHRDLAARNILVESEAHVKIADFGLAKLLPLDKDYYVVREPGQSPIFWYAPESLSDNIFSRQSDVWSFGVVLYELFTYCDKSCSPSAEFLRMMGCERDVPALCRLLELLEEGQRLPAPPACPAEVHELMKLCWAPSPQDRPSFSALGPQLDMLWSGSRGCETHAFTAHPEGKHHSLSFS
Outline: as §1

[6] = target: 140 purified human kinases (Homo sapiens, UniProt P23443)
140 purified human kinases (Homo sapiens, UniProt P23443), sequence (P23443 whole entry): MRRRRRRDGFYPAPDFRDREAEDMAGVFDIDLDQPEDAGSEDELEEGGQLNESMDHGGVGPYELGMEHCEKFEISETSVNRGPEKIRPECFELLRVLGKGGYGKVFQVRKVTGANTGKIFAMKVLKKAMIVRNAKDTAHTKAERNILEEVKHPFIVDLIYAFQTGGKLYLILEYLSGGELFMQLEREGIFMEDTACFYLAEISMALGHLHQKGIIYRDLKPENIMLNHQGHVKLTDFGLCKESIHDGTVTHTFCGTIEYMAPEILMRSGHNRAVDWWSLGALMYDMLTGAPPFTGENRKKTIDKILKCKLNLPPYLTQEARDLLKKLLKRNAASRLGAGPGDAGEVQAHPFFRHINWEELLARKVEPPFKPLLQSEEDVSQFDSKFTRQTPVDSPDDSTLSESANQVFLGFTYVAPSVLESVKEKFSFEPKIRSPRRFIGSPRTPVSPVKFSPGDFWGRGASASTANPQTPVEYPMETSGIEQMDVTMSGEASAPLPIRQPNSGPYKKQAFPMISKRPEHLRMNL
Outline: as §1

[Cu+2].[Cu+2].[Cu+2].c1ccc(-c2csc(NCCN(CCNc3nc(-c4ccccn4)cs3)CCNc3nc(-c4ccccn4)cs3)n2)nc1.c1ccc(-c2csc(NCCN(CCNc3nc(-c4ccccn4)cs3)CCNc3nc(-c4ccccn4)cs3)n2)nc1 [[L2Cu3]6+]
% Inhibition Run 1 ([1]; TIE2): 73.2% | % Inhibition Run 2 ([1]; TIE2): 55% | % Inhibition, Mean ([1]; TIE2): 64% | mean % activity ([1]; TIE2): 36% | % activity ([1]; TIE2, Run 1): 26.8% | % activity ([1]; TIE2, Run 2): 45% | % Inhibition Run 1 ([2]; DYRK3): 42.6% | % Inhibition Run 2 ([2]; DYRK3): 40.9% | % Inhibition, Mean ([2]; DYRK3): 42% | mean % activity ([2]; DYRK3): 58% | % activity ([2]; DYRK3, Run 1): 57.4% | % activity ([2]; DYRK3, Run 2): 59.1% | % Inhibition Run 1 ([3]; CK1γ2): 23.7% | % Inhibition Run 2 ([3]; CK1γ2): 10.8% | % Inhibition, Mean ([3]; CK1γ2): 17% | mean % activity ([3]; CK1γ2): 83% | % activity ([3]; CK1γ2, Run 1): 76.3% | % activity ([3]; CK1γ2, Run 2): 89.2% | % Inhibition Run 1 ([4]; MARK3): 28.5% | % Inhibition Run 2 ([4]; MARK3): 28.2% | % Inhibition, Mean ([4]; MARK3): 28% | mean % activity ([4]; MARK3): 72% | % activity ([4]; MARK3, Run 1): 71.5% | % activity ([4]; MARK3, Run 2): 71.8% | % Inhibition Run 1 ([5]; JAK3): 39.3% | % Inhibition Run 2 ([5]; JAK3): 44.6% | % Inhibition, Mean ([5]; JAK3): 42% | mean % activity ([5]; JAK3): 58% | % activity ([5]; JAK3, Run 1): 60.7% | % activity ([5]; JAK3, Run 2): 55.4% | % Inhibition Run 1 ([6]; S6K1): 79% | % Inhibition Run 2 ([6]; S6K1): 89.6% | % Inhibition, Mean ([6]; S6K1): 84% | mean % activity ([6]; S6K1): 16% | % activity ([6]; S6K1, Run 1): 21% | % activity ([6]; S6K1, Run 2): 10.4%

CC(=O)[O-].CC(=O)[O-].CC(=O)[O-].CC(=O)[O-].CC(=O)[O-].CC(=O)[O-].[Zn+2].[Zn+2].[Zn+2].c1ccc(-c2csc(NCCN(CCNc3nc(-c4ccccn4)cs3)CCNc3nc(-c4ccccn4)cs3)n2)nc1.c1ccc(-c2csc(NCCN(CCNc3nc(-c4ccccn4)cs3)CCNc3nc(-c4ccccn4)cs3)n2)nc1 [[L2Zn3]6+]
% Inhibition, Mean ([1]; TIE2): 85% | % Inhibition, Run 1 / Run 2 ([1]; TIE2): 92% and 78% | mean % activity ([1]; TIE2): 15% | % Activity inhibition Mean ([1]; TIE2, 10 µM): 84.5% | % Activity inhibition Run 1 ([1]; TIE2, 10 µM): 92% | % Activity inhibition Run 2 ([1]; TIE2, 10 µM): 77% | % Activity remaining Run 1 ([1]; TIE2, 10 µM): 8% | % Activity remaining Run 2 ([1]; TIE2, 10 µM): 23% | % Inhibition, Mean ([2]; DYRK3): 30% | % Inhibition, Run 1 / Run 2 ([2]; DYRK3): 32% and 28% | mean % activity ([2]; DYRK3): 70% | % activity ([2]; DYRK3, duplicate runs): 68% and 72% | % Inhibition, Mean ([3]; CK1γ2): 12% | mean % activity ([3]; CK1γ2): 88% | % activity ([3]; CK1γ2, duplicate runs): 82% and 94% | % Inhibition, Mean ([4]; MARK3): 4.7% | % Inhibition, Run 1 / Run 2 ([4]; MARK3): 1.7% and 8% | mean % activity ([4]; MARK3): 95% | % activity ([4]; MARK3, duplicate runs): 98% and 92% | % Inhibition, Mean ([5]; JAK3): 17% | mean % activity ([5]; JAK3): 83% | % activity ([5]; JAK3, duplicate runs): 66% and 99% | % Inhibition, Mean ([6]; S6K1): 42% | mean % activity ([6]; S6K1): 58% | % activity ([6]; S6K1, duplicate runs): 43% and 74%
